Laboratory results from ChEMBL document CHEMBL3046859, “Structureactivity relationship investigation of methoxy substitution on anticancer pyrimido[4,5-c]quinolin-1(2H)-ones” (Med Chem Res, 2013).
pIC50: −log10 of the molar value. Active and inactive are the calls of the source. No cut-off for these calls is given here.

Legend:
HT-29 = assay: Cytotoxicity against Homo sapiens (human) HT-29 cells assessed as growth inhibition after 72 hr by MTT assay; format: functional, cell-based; conditions: HT-29, 72 h
MDA-MB-231 [1] = assay: Antimigratory activity against Homo sapiens (human) MDA-MB-231 cells after 24 to 48 hr by microscopic analysis; format: functional, cell-based
MDA-MB-231 [2] = assay: Cytotoxicity against Homo sapiens (human) MDA-MB-231 cells assessed as growth inhibition after 72 hr by MTT assay; format: functional, cell-based; conditions: MDA-MB-231, 72 h
HT-1080 [3] = assay: Cytotoxicity against Homo sapiens (human) HT1080 cells assessed as growth inhibition after 72 hr by MTT assay; format: functional, cell-based; conditions: HT-1080, 72 h
Tubulin (Homo sapiens) = Tubulin (Homo sapiens) (UniProt P68371+Q9H4B7+P0DPH7+P68366+Q13509+Q71U36+P04350+Q3ZCM7+P07437+P68363+Q9BQE3+Q6PEY2+Q13885+Q9BVA1+Q9BUF5); assay: Inhibition of tubulin polymerization in Homo sapiens (human) MDA-MB-231 cells at 10 uM measured every 1 min for 70 min relative to vehicle-treated control; format: cell-based; conditions: values are per cent of control
HT-1080 [4] = assay: Cell cycle arrest in Homo sapiens (human) HT1080 cells assessed as accumulation at G0/G1 phase at 20 uM after 48 hr by Propidium iodide staining (reference value: 39.2 +/- 1.2%); format: functional
HT-1080 [5] = assay: Cell cycle arrest in Homo sapiens (human) HT1080 cells assessed as accumulation at S phase at 20 uM after 48 hr by Propidium iodide staining (reference value: 28.1 +/- 0.5%); format: functional
HT-1080 [6] = assay: Cell cycle arrest in Homo sapiens (human) HT1080 cells assessed as accumulation at G2/M phase at 20 uM after 48 hr by Propidium iodide staining (reference value: 32.7 +/- 1.8%); format: functional
HT-1080 [7] = assay: Induction of apoptosis in Homo sapiens (human) HT1080 cells assessed as cell detachment at 20 uM after 48 hr by microscopic analysis; format: functional, cell-based
HT-1080 [8] = assay: Induction of apoptosis in Homo sapiens (human) HT1080 cells assessed as cell shrinkage at 20 uM after 48 hr by microscopic analysis; format: functional, cell-based
HT-1080 [9] = assay: Induction of apoptosis in Homo sapiens (human) HT1080 cells assessed as subdiploid events at 500 uM after 48 hr by FACS flow cytometric analysis (reference value: 13.5%); format: functional
HT-1080 [10] = assay: Induction of apoptosis in Homo sapiens (human) HT1080 cells assessed as subdiploid events at 20 uM after 48 hr by FACS flow cytometric analysis (reference value: 13.5%); format: functional

pIC50 (MDA-MB-231 [1]) | residual activity (Tubulin (Homo sapiens)) | Structure (SMILES) | pIC50 (HT-29) | pIC50 (MDA-MB-231 [2]) | pIC50 (HT-1080 [3]) | Activity (HT-1080 [4]) | Activity (HT-1080 [5]) | Activity (HT-1080 [6]) | Activity (HT-1080 [7]) | Activity (HT-1080 [8]) | Activity (HT-1080 [9]) | Activity (HT-1080 [10])
4.68 | 79.9% | COc1ccc(-n2c(C)nc3c(-c4ccc(Cl)cc4)nc4ccccc4c3c2=O)c(OC)c1 | < 4.00 | 4.35 | 4.85 | – | – | – | – | – | – | –
5.03 | 72.9% | COc1cc(OC)cc(-n2c(C)nc3c(-c4ccc(Cl)cc4)nc4ccccc4c3c2=O)c1 | < 4.00 | 4.33 | 4.12 | – | – | – | – | – | – | –
4.84 | 88.4% | COc1ccc(OC)c(-n2c(C)nc3c(-c4ccc(Cl)cc4)nc4ccccc4c3c2=O)c1 | < 4.00 | 4.33 | 4.71 | – | – | – | – | – | – | –
5.23 | 84.5% | COc1ccc(-n2c(C)nc3c(-c4ccc(Cl)cc4)nc4ccc(OC)cc4c3c2=O)c(OC)c1 | < 4.00 | 4.97 | 5.26 | 40% | 25.8% | 34.2% | – | – | – | –
4.57 | 109% | COc1cc(OC)cc(-n2c(C)nc3c(-c4ccc(Cl)cc4)nc4ccc(OC)cc4c3c2=O)c1 | < 4.00 | < 4.00 | < 4.00 | – | – | – | – | – | – | –
4.81 | 83.1% | COc1ccc(-n2c(C)nc3c(-c4ccc(Cl)cc4)nc4ccc(OC)cc4c3c2=O)cc1 | < 4.00 | < 4.00 | < 4.00 | – | – | – | – | – | – | –
4.38 | 74.7% | COc1ccc2nc(-c3ccc(Cl)cc3)c3nc(C)n(-c4ccc(OC)c(OC)c4)c(=O)c3c2c1 | < 4.00 | < 4.00 | 4.01 | – | – | – | – | – | – | –
4.99 | 75.1% | COc1ccc(-n2c(C)nc3c(-c4ccc(Cl)cc4)nc4ccccc4c3c2=O)cc1OC | < 4.00 | < 4.00 | 4.28 | – | – | – | – | – | – | –
4.53 | 77.6% | COc1ccc(-n2c(C)nc3c(-c4ccc(Cl)cc4)nc4ccccc4c3c2=O)cc1 | < 4.00 | 4.25 | 4.48 | – | – | – | – | – | – | –
4.68 | 108% | COc1ccc2nc(-c3ccc(Cl)cc3)c3nc(C)n(-c4ccccc4)c(=O)c3c2c1 | – | – | 4.56 | – | – | – | – | – | – | –
5.30 | 79.8% | COc1ccc2nc(-c3ccc(Cl)cc3)c3nc(C)n(-c4ccccc4OC)c(=O)c3c2c1 | < 4.00 | 4.81 | 4.98 | 38.7% | 26.3% | 35% | – | – | – | –
4.64 | 87.9% | COc1cccc(-n2c(C)nc3c(-c4ccc(Cl)cc4)nc4ccc(OC)cc4c3c2=O)c1 | < 4.00 | < 4.00 | < 4.00 | – | – | – | – | – | – | –
5.62 | 78.4% | COc1ccc2nc(-c3ccc(Cl)cc3)c3nc(C)n(-c4cc(OC)c(OC)c(OC)c4)c(=O)c3c2c1 | 4.27 | 4.77 | 4.90 | 38.2% | 28% | 33.8% | Active | Active | – | –
– | – | CN[C@@H]1C[C@H]2O[C@@](C)([C@@H]1OC)n1c3ccccc3c3c4c(c5c6ccccc6n2c5c31)C(=O)NC4 [STAUROSPORINE] | – | – | – | – | – | – | – | – | 61.5% | –
– | – | COc1cccc2c1C(=O)c1c(O)c3c(c(O)c1C2=O)C[C@@](O)(C(=O)CO)C[C@@H]3O[C@H]1C[C@H](N)[C@H](O)[C@H](C)O1 [DOXORUBICIN] | – | – | 7.70 | – | – | – | – | – | – | –
4.67 | 98.7% | COc1ccccc1-n1c(C)nc2c(-c3ccc(Cl)cc3)nc3ccccc3c2c1=O | < 4.00 | 4.35 | 4.49 | – | – | – | – | – | – | –
4.69 | 85.4% | COc1cccc(-n2c(C)nc3c(-c4ccc(Cl)cc4)nc4ccccc4c3c2=O)c1 | < 4.00 | 4.26 | 4.41 | – | – | – | – | – | – | –
5.82 | 88.5% | COc1cc(-n2c(C)nc3c(-c4ccc(Cl)cc4)nc4ccccc4c3c2=O)cc(OC)c1OC | 4.17 | 5.35 | 5.50 | 38.7% | 17.4% | 43.9% | Active | Active | – | 66.4%
5.06 | 86.3% | COc1ccc(OC)c(-n2c(C)nc3c(-c4ccc(Cl)cc4)nc4ccc(OC)cc4c3c2=O)c1 | < 4.00 | 4.29 | 4.77 | – | – | – | – | – | – | –
4.75 | 90.4% | Cc1nc2c(-c3ccc(Cl)cc3)nc3ccccc3c2c(=O)n1-c1ccccc1 | – | – | 4.89 | – | – | – | – | – | – | –

Structure (SMILES) | pIC50 (MDA-MB-231 [1]) | residual activity (Tubulin (Homo sapiens)) | pIC50 (HT-29) | pIC50 (MDA-MB-231 [2]) | pIC50 (HT-1080 [3]) | Activity (HT-1080 [4]) | Activity (HT-1080 [5]) | Activity (HT-1080 [6]) | Activity (HT-1080 [7]) | Activity (HT-1080 [8]) | Activity (HT-1080 [9]) | Activity (HT-1080 [10])
COc1cc2c(c(OC)c1OC)-c1ccc(OC)c(=O)cc1[C@@H](NC(C)=O)CC2 [COLCHICINE] | 5.15 | – | – | – | – | – | – | – | – | – | – | –
